Source: ChEMBL document CHEMBL4627246, “Pyroglutamide-Based P2X7 Receptor Antagonists Targeting Inflammatory Bowel Disease” (J Med Chem, 2020)

Experiments:
Type in all cases: cell-based
SN12C = test: Cytotoxicity against human SN12C cells assessed as effect on cell growth at 10 uM incubated for 48 hrs by sulforhodamine B assay
UACC-257 = test: Cytotoxicity against human UACC257 cells assessed as effect on cell growth at 10 uM incubated for 48 hrs by sulforhodamine B assay; details: uacc-257, 48 h
A549 = test: Cytotoxicity against human A549/ATCC cells assessed as effect on cell growth at 10 uM incubated for 48 hrs by sulforhodamine B assay; details: a549, 48 h
SF-539 = test: Cytotoxicity against human SF539 cells assessed as effect on cell growth at 10 uM incubated for 48 hrs by sulforhodamine B assay; details: sf-539, 48 h
SF-268 = test: Cytotoxicity against human SF268 cells assessed as effect on cell growth at 10 uM incubated for 48 hrs by sulforhodamine B assay; details: sf-268, 48 h
NCI/ADR-RES = test: Cytotoxicity against human NCI/ADR-RES cells assessed as effect on cell growth at 10 uM incubated for 48 hrs by sulforhodamine B assay
SW-620 = test: Cytotoxicity against human SW620 cells assessed as effect on cell growth at 10 uM incubated for 48 hrs by sulforhodamine B assay; details: sw-620, 48 h
LOX IMVI = test: Cytotoxicity against human LOXIMVI cells assessed as effect on cell growth at 10 uM incubated for 48 hrs by sulforhodamine B assay
K562 = test: Cytotoxicity against human K562 cells assessed as effect on cell growth at 10 uM incubated for 48 hrs by sulforhodamine B assay; details: k562, 48 h
SK-OV-3 = test: Cytotoxicity against human SKOV3 cells assessed as effect on cell growth at 10 uM incubated for 48 hrs by sulforhodamine B assay; details: sk-ov-3, 48 h
HOP-62 = test: Cytotoxicity against human HOP62 cells assessed as effect on cell growth at 10 uM incubated for 48 hrs by sulforhodamine B assay; details: hop-62, 48 h
HCT-116 = test: Cytotoxicity against human HCT116 cells assessed as effect on cell growth at 10 uM incubated for 48 hrs by sulforhodamine B assay; details: hct-116, 48 h
OVCAR-3 = test: Cytotoxicity against human OVCAR3 cells assessed as effect on cell growth at 10 uM incubated for 48 hrs by sulforhodamine B assay; details: ovcar-3, 48 h
OVCAR-4 = test: Cytotoxicity against human OVCAR4 cells assessed as effect on cell growth at 10 uM incubated for 48 hrs by sulforhodamine B assay; details: ovcar-4, 48 h
SK-MEL-28 = test: Cytotoxicity against human SK-MEL-28 cells assessed as effect on cell growth at 10 uM incubated for 48 hrs by sulforhodamine B assay; details: sk-mel-28, 48 h
CCRF-CEM = test: Cytotoxicity against human CCRF-CEM cells assessed as effect on cell growth at 10 uM incubated for 48 hrs by sulforhodamine B assay
HT-29 = test: Cytotoxicity against human HT-29 cells assessed as effect on cell growth at 10 uM incubated for 48 hrs by sulforhodamine B assay; details: ht-29, 48 h
A498 = test: Cytotoxicity against human A498 cells assessed as effect on cell growth at 10 uM incubated for 48 hrs by sulforhodamine B assay; details: a498, 48 h
MOLT-4 = test: Cytotoxicity against human MOLT4 cells assessed as effect on cell growth at 10 uM incubated for 48 hrs by sulforhodamine B assay; details: molt-4, 48 h
RPMI-8226 = test: Cytotoxicity against human RPMI8226 cells assessed as effect on cell growth at 10 uM incubated for 48 hrs by sulforhodamine B assay; details: rpmi-8226, 48 h

Measured: Activity

O=C(NCc1ccc(Cl)cc1Cl)[C@@H]1CCC(=O)N1c1ccccc1
Non-Toxic: all assays above

O=C(NCc1ccccc1Cl)[C@@H]1CCC(=O)N1Cc1ccccc1Cl
Non-Toxic: all assays above

O=C1N[C@H](C(=O)NCc2ccc(Cl)cc2Cl)CO1
Non-Toxic: all assays above

CN1C(=O)CC[C@H]1C(=O)NCc1cccc(C(F)(F)F)c1Cl [GSK1482160]
Non-Toxic: all assays above

C[n+]1ccccc1C(=O)NCc1ccc(Cl)cc1Cl.[I-]
Non-Toxic: all assays above

COc1cc(CNC(=O)[C@@H]2CCC(=O)N2)cc(OC)c1OC
Non-Toxic: all assays above

O=C(NCc1ccc(Cl)cc1Cl)[C@@H]1CCC(=O)N1c1cncs1
Non-Toxic: all assays above

O=C(NCC1CCCCC1)[C@@H]1CCC(=O)N1c1ccccc1
Non-Toxic: all assays above

O=C1N[C@H](C(=O)NCc2ccc(Cl)cc2Cl)C/C1=C\N1CCOCC1
Non-Toxic: all assays above

O=C(NCc1ccc(Cl)cc1Cl)[C@@H]1CCC(=O)N1Cc1ccccc1
Non-Toxic: all assays above

O=C(NCc1ccc(Cl)cc1Cl)[C@@H]1CCC(=O)N1c1cscn1
Non-Toxic: all assays above

CN(C)/C=C1\C[C@H]2C(=O)N(Cc3ccccc3Cl)C(N(C)C)N2C1=O (stereo not given in full)
Non-Toxic: all assays above

O=C(NCCc1ccccc1)[C@@H]1CCC(=O)N1Cc1ccc(Br)cc1
Non-Toxic: all assays above

COc1ccc(CN2C(=O)CC[C@H]2C(=O)NCCc2ccccc2)cc1
Non-Toxic: all assays above
